Measured values as given in publication PMC2720045 (Proteins, 2009).
Entries after “also recorded” stand apart in the source; their conditions may differ. Where two headings read alike, the source gives them in different places.

Columns and labels:
[1] = test system: P. falciparum; settings: cited from earlier work
[2] = biological target: T1, porcine pepsin (Sus scrofa, UniProt P00791); assay: DSC of pepsin with inhibitors; format: binding; settings: DSC pH 3; […] (APV) or 2-fold (Ac-PEP) molar excess; unliganded pepsin Tm 74.2
T1 sequence (P00791 60-385): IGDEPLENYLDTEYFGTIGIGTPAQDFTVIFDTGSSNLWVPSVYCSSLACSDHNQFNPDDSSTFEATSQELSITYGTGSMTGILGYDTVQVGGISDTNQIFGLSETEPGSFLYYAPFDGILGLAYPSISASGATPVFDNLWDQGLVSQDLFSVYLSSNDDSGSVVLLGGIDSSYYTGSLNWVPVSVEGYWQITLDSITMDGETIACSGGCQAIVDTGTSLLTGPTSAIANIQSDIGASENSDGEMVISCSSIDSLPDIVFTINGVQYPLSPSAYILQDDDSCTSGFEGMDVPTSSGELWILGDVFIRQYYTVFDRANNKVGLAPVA

[3] = biological target: PRD29N (HIV-1 protease D29N mutant) (Human immunodeficiency virus type 1, UniProt P03367, D529N, form not given); settings: inhibitor 28 μM, pH 4.8-5.0; unliganded PRD29N 59.0
[4] = biological target: T1, porcine pepsin; assay: ITC titration of pepsin with inhibitors; format: binding; settings: for binding constant (KL) from curve fitting of ITC data, pepsin / stoichiometry of binding to pepsin: 28 °C; for binding constant (KL) from curve fitting of ITC data, pepsin: 50 mM sodium formate pH 3; for stoichiometry of binding to pepsin: pH 3
[5] = biological target: T1, porcine pepsin; assay: Kinetic inhibition of pepsin; format: biochemical; settings: for inhibition at 16 µM: pH 3, read-out: Inhibition of pepsin under the screening conditions; for Inhibition of pepsin under the screening conditions: 175 μM substrate, pH 3.0-3.2, 28 °C
[6] = biological target: T2, mature HIV-1 protease (PR) (Human immunodeficiency virus type 1, UniProt P03367); settings: cited from earlier work; for Binding constant (Ka), PR / ΔH of binding, PR / −TΔS of binding, PR: ITC, pH 5; for Kd: read-out: KL at 25 °C PR (lit.), 25 °C
[7] = biological target: T3, PRD25N (HIV-1 protease D25N mutant) (Human immunodeficiency virus type 1, UniProt P03367, D525N, form not given); assay: DSC thermal denaturation of PRD25N with inhibitors; format: binding; settings: inhibitor 28 μM, pH 4.8-5.0; unliganded PRD25N 58.4
[8] = test system: PRD25N (HIV-1 protease D25N mutant); assay: DSC thermal denaturation of PRD25N with inhibitors; format: binding; settings: DSC
[9] = biological target: T3, PRD25N (HIV-1 protease D25N mutant); settings: cited from earlier work
[10] = biological target: T2, mature HIV-1 protease (PR); settings: cited from earlier work
[11] = Tm with inhibitor minus Tm without, twofold molar excess

Q: Which “growth of P. falciparum” value [1] does the source give for CC(C)CN(C[C@@H](O)[C@H](Cc1ccccc1)NC(=O)O[C@H]1CCOC1)S(=O)(=O)c1ccc(N)cc1 [APV, Amprenavir] here?
A: did not inhibit

Q: What about the ΔTm pepsin [2] of the same compound?
A: 2.7 °C

Q: What about the “Tm PRD29N” value [3] of the same compound?
A: 67.5 °C

Q: And the Kd [4]?
A: 180 nM

Q: What about the “binding constant (KL) from curve fitting of ITC data, pepsin” value [4] of the same compound?
A: (5.5 ± 0.5) × 10^6 M

Q: What about the “stoichiometry of binding to pepsin” value ([4]; ITC) of the same compound?
A: 0.97 ± 0.004

Q: What about the “Binding constant (Ka), pepsin” value ([4]; ITC, pH 3, 28 °C) of the same compound?
A: (5.45 ± 0.5) × 10^6 M^−1

Q: What about the “ΔH of binding, pepsin” value ([4]; ITC, pH 3, 28 °C) of the same compound?
A: -4.2 ± 0.3 kcal/mol

Q: And the “−TΔS of binding, pepsin” value ([4]; ITC, pH 3, 28 °C)?
A: -5.1 kcal/mol

Q: What about the Ki [5] of the same compound?
A: 300 nM

Q: What about the inhibition at 16 µM [5] of the same compound?
A: 75 to 95%

Q: What about the “Binding constant (Ka), PR” value [6] of the same compound?
A: (5.0 ± 0.3) × 10^9 M^−1

Q: And the “ΔH of binding, PR” value [6]?
A: -6.9 kcal/mol

Q: What about the “−TΔS of binding, PR” value [6] of the same compound?
A: -6.3 kcal/mol

Q: What about the “Tm PRD25N” value [7] of the same compound?
A: 58.7 °C

Q: Which “Tm PRD29N” value [3] does the source give for COC(=O)N[C@H](C(=O)N[C@@H](Cc1ccccc1)[C@@H](O)CN(Cc1ccc(-c2ccccn2)cc1)NC(=O)[C@@H](NC(=O)OC)C(C)(C)C)C(C)(C)C [ATV, Atazanavir] here?
A: 71.7 °C

Q: And the “Inhibition of pepsin under the screening conditions” value (“Inhibition of pepsin” below) ([5]; 16 μM inhibitor)?
A: undetected; also recorded: no detectable inhibition; also recorded: did not inhibit

Q: What about the Kd [6] of the same compound?
A: 0.035 nM

Q: And the “Tm PRD25N” value [7]?
A: 61.4 °C

Q: With O=C1N(Cc2ccc(CO)cc2)[C@H](Cc2ccccc2)[C@H](O)[C@@H](O)[C@@H](Cc2ccccc2)N1Cc1ccc(CO)cc1 [DMP323] as the compound, how does the “Tm PRD29N” value [3] read?
A: 69.2 °C

Q: And the “Inhibition of pepsin” value ([5]; 24 μM inhibitor)?
A: undetected

Q: What about the Kd [6] of the same compound?
A: 3.8 nM

Q: And the “Tm PRD25N” value [7]?
A: 67.3 °C

Q: And the “ΔTm ratio ΔTm(PR)/ΔTm(PRD25N)” value [8]?
A: 1-2

Q: Which “Tm PRD29N” value [3] does the source give for CC(C)CN(C[C@@H](O)[C@H](Cc1ccccc1)NC(=O)O[C@H]1CO[C@H]2OCC[C@H]21)S(=O)(=O)c1ccc(N)cc1 [DRV, Darunavir] here?
A: 72.7 °C

Q: And the Kd [4]?
A: 1540 nM

Q: And the “difference in ΔG for binding to the two enzymes (PR and pepsin)” value [4]?
A: 7200 kcal/mol

Q: What about the “binding constant (KL) from curve fitting of ITC data, pepsin” value [4] of the same compound?
A: (6.5 ± 0.6) × 10^5 M

Q: And the “stoichiometry of binding to pepsin” value ([4]; ITC)?
A: 0.90 ± 0.01

Q: What about the “−TΔS of binding, pepsin” value ([4]; ITC, pH 3, 28 °C) of the same compound?
A: -2.0 kcal/mol

Q: What about the “ΔTm PRD25N” value [9, 11] of the same compound?
A: 3.1 °C

Q: And the “Tm PRD25N” value ([9]; twofold molar excess of inhibitor, unliganded PRD25N 58.4)?
A: 61.5 °C

Q: What about the “ΔTm PR” value [10, 11] of the same compound?
A: 22.4 °C

Q: And the “Tm PR” value ([10]; twofold molar excess of inhibitor, unliganded PR 65.7)?
A: 88.1 °C

Q: What about the Ki [5] of the same compound?
A: 2140 nM

Q: What about the “−TΔS of binding, PR” value [6] of the same compound?
A: -3.1 kcal/mol

Q: For CC(C)(C)NC(=O)[C@@H]1CN(Cc2cccnc2)CCN1C[C@@H](O)C[C@@H](Cc1ccccc1)C(=O)N[C@H]1c2ccccc2C[C@H]1O [INV, Indinavir], which “Inhibition of pepsin” value ([5]; 16 μM inhibitor) is on record?
A: undetected; also recorded: did not inhibit

Q: Which inhibition at 16 µM [5] does the source give for Cc1cccc(C)c1OCC(=O)N[C@@H](Cc1ccccc1)[C@@H](O)C[C@H](Cc1ccccc1)NC(=O)[C@H](C(C)C)N1CCCNC1=O [LPV, Lopinavir] here?
A: ≤ 50%

Q: With Cc1c(O)cccc1C(=O)N[C@@H](CSc1ccccc1)[C@H](O)CN1C[C@H]2CCCC[C@H]2C[C@H]1C(=O)NC(C)(C)C [NFV, Nelfinavir] as the compound, how does the inhibition at 16 µM [5] read?
A: ≤ 50%

Q: With CC(C)c1nc(CN(C)C(=O)N[C@H](C(=O)N[C@@H](Cc2ccccc2)C[C@H](O)[C@H](Cc2ccccc2)NC(=O)OCc2cncs2)C(C)C)cs1 [RTV, Ritonavir] as the compound, how does the “Tm PRD29N” value [3] read?
A: 66.1 °C

Q: And the inhibition at 16 µM [5]?
A: 75 to 95%

Q: What about the “Binding constant (Ka), PR” value [6] of the same compound?
A: (1.0 ± 0.1) × 10^10 M^−1

Q: What about the “ΔH of binding, PR” value [6] of the same compound?
A: -4.3 kcal/mol

Q: What about the “−TΔS of binding, PR” value [6] of the same compound?
A: -9.4 kcal/mol

Q: And the “Tm PRD25N” value [7]?
A: 61.1 °C

Q: What does the source list for CC(C)(C)NC(=O)[C@@H]1C[C@@H]2CCCC[C@@H]2CN1C[C@@H](O)[C@H](Cc1ccccc1)NC(=O)[C@H](CC(N)=O)NC(=O)c1ccc2ccccc2n1 [SQV, Saquinavir]?
A: Tm PRD29N [3]: 72.3 °C; inhibition at 16 µM [5]: ≤ 50%; Tm PRD25N [7]: 62.6 °C

Q: With CCC[C@@]1(CCc2ccccc2)CC(O)=C([C@H](CC)c2cccc(NS(=O)(=O)c3ccc(C(F)(F)F)cn3)c2)C(=O)O1 [TPV, Tipranavir] as the compound, how does the inhibition at 16 µM [5] read?
A: ≤ 50%

Q: For acetyl pepstatin [Ac-PEP], which “Tm PRD29N” value [3] is on record?
A: 58.3 °C

Q: And the Kd [6]?
A: 440 nM

Q: And the “Tm PRD25N” value [7]?
A: 58.8 °C
